# Assay results as given in the supplement of paper PMC10307832.
# Assays:
# Assay in all cases: relative viability (nuclei count vs DMSO), 5 days (fraction); higher = more cells survive
# [1] = compound: CC1=C(CC(=O)O)c2cc(F)ccc2/C1=C\c1ccc([S+](C)[O-])cc1 [Sulindac] + CCNC(=O)c1noc(-c2cc(C(C)C)c(O)cc2O)c1-c1ccc(CN2CCOCC2)cc1 [Luminespib] (partner 0.01 µM)
# Summary of the method: (§1)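 For relative viability, nuclei counts in treated wells were divided by those in vehicle wells. Lung cancer cell lines had been pin-tool dosed in 1536-well plates the day after seeding and cultured for 5 days, then fixed and stained in one step (final 0.05% Triton X-100, 1% formaldehyde, 1 ug/ml Hoechst) and imaged at 4×. Doses were one drug alone or a fixed anchor-drug dose plus five library-drug doses (not always all listed) in √10 steps, and values are duplicate-plate medians.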
# [2] = compound: O=c1[nH]cc(F)c(=O)[nH]1 [5-Fluorouracil] + CC(C)C[C@H](NC(=O)[C@H](Cc1ccccc1)NC(=O)c1cnccn1)B(O)O [Bortezomib] (partner 0.002 µM)
# Summary of the method: as §1
# [3] = compound: CN[C@@H]1C[C@H]2O[C@@](C)([C@@H]1OC)n1c3ccccc3c3c4c(c5c6ccccc6n2c5c31)C(=O)NC4 [Staurosporine] + Nc1ncn([C@H]2C[C@H](O)[C@@H](CO)O2)c(=O)n1 [Decitabine] (partner 2 µM)
# Summary of the method: as §1
# [4] = compound: CN[C@@H]1C[C@H]2O[C@@](C)([C@@H]1OC)n1c3ccccc3c3c4c(c5c6ccccc6n2c5c31)C(=O)NC4 [Staurosporine] + O=C(CCCCCCC(=O)Nc1ccccc1)NO [Vorinostat] (partner 1 µM)
# Summary of the method: as §1
Cell Line,relative viability ([1]; first compound 0.08 µM),relative viability ([1]; first compound 0.253 µM),relative viability ([1]; first compound 0.8 µM),relative viability ([1]; first compound 2.53 µM),relative viability ([1]; first compound 8 µM),relative viability ([2]; first compound 0.02 µM),relative viability ([2]; first compound 0.2 µM),relative viability ([2]; first compound 0.6325 µM),relative viability ([2]; first compound 2 µM),relative viability ([3]; first compound 0.005 µM),relative viability ([3]; first compound 0.05 µM),relative viability ([3]; first compound 0.1581 µM),relative viability ([3]; first compound 0.5 µM),relative viability ([4]; first compound 0.005 µM),relative viability ([4]; first compound 0.05 µM),relative viability ([4]; first compound 0.1581 µM),relative viability ([4]; first compound 0.5 µM),relative viability ([3]; first compound 0.01581 µM),relative viability ([4]; first compound 0.01581 µM)
201T,1.13,1.09,1.07,1.04,1.09,1.11,1.04,0.417,0.346,0.884,0.787,0.649,0.672,0.935,0.699,0.354,0.245,,
A549,,,,,,,,,,0.348,0.108,0.0369,0.0407,,,,,0.239,
A-427,1.05,0.835,1.06,0.781,1.07,0.888,1.07,0.986,0.532,0.573,0.282,0.18,0.149,0.572,0.43,0.161,0.152,0.448,0.333
ABC-1,0.397,0.415,0.687,,0.71,0.251,0.274,0.361,0.375,0.578,0.353,0.259,0.157,0.667,0.454,0.147,0.117,0.563,0.411
BEN,0.23,0.373,0.597,0.472,0.326,0.779,0.869,0.655,0.655,0.882,0.486,0.279,0.311,0.879,0.506,0.319,0.264,0.621,0.885
CAL-12T,0.556,0.3,0.311,0.485,0.524,1.13,1.05,0.911,0.751,,,,,0.415,0.165,0.129,0.112,,0.231
COR-L23,0.903,0.555,0.508,0.739,0.952,1.04,0.85,0.41,0.221,0.362,0.193,0.092,0.0806,0.159,0.0727,0.0709,0.0639,0.248,0.147
COR-L 105,0.677,0.66,0.724,0.793,0.792,0.662,0.704,0.597,0.401,0.603,0.381,0.332,0.229,0.69,0.228,0.333,0.224,0.44,0.289
Calu-6,,,,,,0.984,0.947,0.801,0.42,,,,,,,,,,
ChaGo-K-1,0.526,0.584,0.637,0.587,0.405,0.955,1.04,0.7,0.705,0.641,0.544,0.435,0.432,0.791,0.359,0.147,0.144,,
EBC-1,,,,,,0.64,0.553,0.619,0.477,,,,,,,,,,
EKVX,0.755,0.792,0.768,0.887,0.897,0.786,,0.154,0.132,0.31,0.202,0.191,0.18,0.597,0.19,0.248,0.181,0.271,0.236
EMC-BAC-2,1.04,1.23,0.802,1.23,1.22,1.16,1.17,1.1,1.02,0.554,0.222,0.214,0.208,0.103,0.14,0.166,0.266,0.269,
EPLC-272H,0.211,0.167,,0.262,0.255,0.891,0.733,0.376,0.254,0.367,0.203,0.102,0.0597,0.216,0.0826,0.0904,0.0549,0.193,0.141
H3255,0.85,0.958,0.847,0.954,1.05,0.804,0.867,0.684,0.544,0.53,0.189,0.162,0.117,0.276,0.384,0.48,0.133,0.404,0.219
HARA,0.731,1,0.77,0.671,0.963,1.17,1.15,1.08,1.03,0.479,0.249,0.15,0.179,0.511,0.307,0.302,0.195,0.334,0.114
HCC-15,0.588,0.351,0.304,0.431,0.389,1.18,1.03,0.534,0.322,0.436,0.274,0.134,0.106,0.811,0.485,0.28,0.213,,
